Measured values published in PubChem BioAssay AID248 (DTP/NCI, 2004).
Where “and” joins values, the source holds several entries; their conditions need not be identical. Equal values may be shown once. Toxic doses and inconclusive results are not listed. No stated cut-off is given here; in the data, active means T/C of 150% or more; inactive means T/C below 125%.

System: L1210 leukemia ip in BDF1 mice, survival T/C
Assay: NCI In Vivo Anticancer Drug Screen. Data for tumor model L1210 Leukemia (intraperitoneal) in B6D2F1 (BDF1) mice
Settings: endpoint: mean survival time, higher = longer survival
Summary of the method: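 Transplantable tumor model; survival measured in treated vs vehicle control mice. Value = treated/control.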

[1] = dose: 100.0 mg/kg/injection, schedule: Q04DX003 (ip), vehicle: Klucel (hydroxypropylcellulose) (HPC)
[2] = dose: 200.0 mg/kg/injection, schedule: Q04DX003 (ip), vehicle: Klucel (hydroxypropylcellulose) (HPC)
[3] = dose: 100.0 mg/kg/injection, schedule: Q01DX001 (ip), vehicle: Klucel (hydroxypropylcellulose) (HPC)
[4] = dose: 200.0 mg/kg/injection, schedule: Q01DX001 (ip), vehicle: Klucel (hydroxypropylcellulose) (HPC)
[5] = dose: 400.0 mg/kg/injection, schedule: Q01DX001 (ip), vehicle: Klucel (hydroxypropylcellulose) (HPC)
[6] = dose: 100.0 mg/kg/injection, schedule: Q04DX003 (ip), vehicle: saline
[7] = dose: 200.0 mg/kg/injection, schedule: Q04DX003 (ip), vehicle: saline
[8] = dose: 400.0 mg/kg/injection, schedule: Q04DX003 (ip), vehicle: saline
[9] = dose: 400.0 mg/kg/injection, schedule: Q04DX003 (ip), vehicle: Klucel (hydroxypropylcellulose) (HPC)
[10] = dose: 100.0 mg/kg/injection, schedule: Q04DX002 (ip), vehicle: Klucel (hydroxypropylcellulose) (HPC)
[11] = dose: 200.0 mg/kg/injection, schedule: Q04DX002 (ip), vehicle: Klucel (hydroxypropylcellulose) (HPC)
[12] = dose: 400.0 mg/kg/injection, schedule: Q04DX002 (ip), vehicle: Klucel (hydroxypropylcellulose) (HPC)
[13] = dose: 5.0 mg/kg/injection, schedule: Q01DX Z (ip), vehicle: saline
[14] = dose: 100.0 mg/kg/injection, schedule: Q01DX009 (ip), vehicle: Klucel (hydroxypropylcellulose) (HPC)
[15] = dose: 200.0 mg/kg/injection, schedule: Q01DX009 (ip), vehicle: Klucel (hydroxypropylcellulose) (HPC)
[16] = dose: 100.0 mg/kg/injection, schedule: Q01DX001 (ip), vehicle: saline
[17] = dose: 200.0 mg/kg/injection, schedule: Q01DX001 (ip), vehicle: saline
[18] = dose: 400.0 mg/kg/injection, schedule: Q01DX001 (ip), vehicle: saline

Measured: T/C

O=C(NCCCN1CC1)C(=O)Nc1ccccn1
inactive: [1] 102 % of control | [2] 86 % of control

Cn1c(N)cc(=O)n(C)c1=O
inactive: [3] 112 % of control | [4] 107 % of control | [5] 109 % of control

O=S(c1ccccc1)C(Cl)C1(O)CCCCC1 (stereo unspecified)
inactive: dose: 100.0 mg/kg/injection, schedule: Q03DX002 (ip), vehicle: saline with Tween-80 98 % of control | dose: 200.0 mg/kg/injection, schedule: Q03DX002 (ip), vehicle: saline with Tween-80 98 % of control | dose: 400.0 mg/kg/injection, schedule: Q03DX002 (ip), vehicle: saline with Tween-80 102 % of control

O=[N+]([O-])c1ccc(NN=C(CO)CO)c([N+](=O)[O-])c1
inactive: dose: 100.0 mg/kg/injection, schedule: Q01DX005 (ip), vehicle: saline 98 % of control | [6] 101 % of control | dose: 200.0 mg/kg/injection, schedule: Q01DX005 (ip), vehicle: saline 93 % of control | [7] 100 % of control | dose: 400.0 mg/kg/injection, schedule: Q01DX005 (ip), vehicle: saline 86 % of control | [8] 100 % of control

O=c1cc(Oc2ccc([N+](=O)[O-])cc2)[nH]c(=O)[nH]1
inactive: [3] 96 % of control | [4] 107 % of control

CC(CO)NC(=O)c1ccc(N)cc1 (stereo unspecified)
inactive: [6] 107 % of control | [7] 100 % of control | [8] 102 % of control

COC(=O)C1ON(C(=O)c2ccccc2)C(C)C2OC12 (stereo unspecified)
inactive: [1] 103 % of control | [2] 100 % of control | [9] 96 % of control

C=CC(=O)OCC(C)([N+](=O)[O-])[N+](=O)[O-]
inactive: dose: 50.0 mg/kg/injection, schedule: Q01DX009 (ip), vehicle: saline with Tween-80 103 % of control | dose: 100.0 mg/kg/injection, schedule: Q01DX009 (ip), vehicle: saline with Tween-80 97 % of control | dose: 100.0 mg/kg/injection, schedule: Q04DX003 (ip), vehicle: saline with Tween-80 103 % of control | dose: 200.0 mg/kg/injection, schedule: Q04DX003 (ip), vehicle: saline with Tween-80 96 % of control

O=C(Nc1cccc(C(F)(F)F)c1)OCCOc1ccc(Cl)cc1
inactive: [10] 89 % of control | [11] 96 % of control | [12] 101 % of control

Nc1ccc(NC(=O)Nc2ccccc2)cc1
inactive: [10] 101 % of control | [11] 90 % of control | [12] 101 % of control

O=C(Nc1cccc(C2=NCCN2)c1)c1ccc(C(=O)Nc2cccc(C3=NCCN3)c2)cc1
inactive: dose: 2.5 mg/kg/injection, schedule: Q01DX Z (ip), vehicle: saline 95 % of control | [13] 111 % of control

O=c1[nH][nH]c2c1cnc1ccccc12
inactive: dose: 50.0 mg/kg/injection, schedule: Q01DX009 (ip), vehicle: Klucel (hydroxypropylcellulose) (HPC) 97 % of control | [14] 101 % of control | [15] 94 % of control

COc1nn(O)cc(C)c1=NC(C)=O
inactive: dose: 12.5 mg/kg/injection, schedule: Q04DX002 (ip), vehicle: saline 102 % of control | dose: 25.0 mg/kg/injection, schedule: Q04DX002 (ip), vehicle: saline 98 % of control | dose: 50.0 mg/kg/injection, schedule: Q04DX002 (ip), vehicle: saline 105 % of control

CSc1ncnc2c1ncn2C1CCCO1 (stereo unspecified)
inactive: dose: 37.5 mg/kg/injection, schedule: Q01DX Z (ip), vehicle: methylcellulose (MC) 101 % of control | dose: 75.0 mg/kg/injection, schedule: Q01DX Z (ip), vehicle: methylcellulose (MC) 111 % of control

CCCCCCC1CCC(C(=O)O)CC1 (stereo unspecified)
inactive: [3] 96 % of control | [14] 98 % of control | [4] 97 % of control | [15] 98 % of control | [5] 97 % of control | dose: 400.0 mg/kg/injection, schedule: Q01DX009 (ip), vehicle: Klucel (hydroxypropylcellulose) (HPC) 89 % of control

Cn1c(=O)cc(C=Nc2ccc(S(N)(=O)=O)cc2)c2ccccc21
inactive: [16] 102 % of control | [17] 100 % of control | [18] 98 % of control

CC(=O)Nc1ncnc2n[nH]c(C#N)c12
inactive: dose: 50.0 mg/kg/injection, schedule: Q01DX005 (ip), vehicle: saline with Tween-80 108 % of control | dose: 100.0 mg/kg/injection, schedule: Q01DX005 (ip), vehicle: saline with Tween-80 106 % of control

CCCCCCCCCCCCCCCCOc1ccc(S(=O)(=O)c2ccccc2)cc1[N+](=O)[O-]
inactive: [1] 91 % of control | [2] 94 % of control | dose: 400.0 mg/kg/injection, schedule: Q01DX009 (ip), vehicle: saline sonified 96 % of control | [9] 96 % of control

CCOP(=O)(OCC)/C(=C\c1ccccc1)C(=O)c1ccccc1
inactive: dose: 25.0 mg/kg/injection, schedule: Q04DX003 (ip), vehicle: Klucel (hydroxypropylcellulose) (HPC) 87 % of control | dose: 50.0 mg/kg/injection, schedule: Q04DX003 (ip), vehicle: Klucel (hydroxypropylcellulose) (HPC) 87 % of control | [3] 107 % of control | [1] 90 % of control | [4] 98 % of control | [5] 106 % of control

CC(COC(=O)c1ccccc1)NC1CCCC1 (stereo unspecified)
inactive: dose: 75.0 mg/kg/injection, schedule: Q01DX001 (ip), vehicle: other 96 % of control | dose: 150.0 mg/kg/injection, schedule: Q01DX001 (ip), vehicle: other 108 % of control | dose: 300.0 mg/kg/injection, schedule: Q01DX001 (ip), vehicle: other 107 % of control

NCCSSCCN
inactive: dose: 24.0 mg/kg/injection, schedule: Q04DX002 (ip), vehicle: saline with Tween-80 98 % of control | dose: 60.0 mg/kg/injection, schedule: Q04DX002 (ip), vehicle: saline with Tween-80 95 % of control | dose: 100.0 mg/kg/injection, schedule: Q04DX002 (ip), vehicle: saline 93 % of control | dose: 150.0 mg/kg/injection, schedule: Q04DX002 (ip), vehicle: saline with Tween-80 91 % of control | dose: 200.0 mg/kg/injection, schedule: Q04DX002 (ip), vehicle: saline 107 % of control

Cc1cc2c(C)c3nc4ccccc4c3c(C)c2c[nH]1
inactive: dose: 50.0 mg/kg/injection, schedule: Q01DX001 (ip), vehicle: saline 107 % of control | [16] 98 % of control | [17] 101 % of control | [18] 107 % of control | dose: 800.0 mg/kg/injection, schedule: Q01DX001 (ip), vehicle: saline 110 % of control | dose: 1600.0 mg/kg/injection, schedule: Q01DX001 (ip), vehicle: saline 118 % of control

CC1(C)CN1CC1CO1 (stereo unspecified)
inactive: dose: 3.0 mg/kg/injection, schedule: Q01DX Z (ip), vehicle: saline 120 % of control | [13] 120 % of control | dose: 7.0 mg/kg/injection, schedule: Q01DX Z (ip), vehicle: saline 114 % of control and 118 % of control and 124 % of control | dose: 11.0 mg/kg/injection, schedule: Q01DX Z (ip), vehicle: saline 109 % of control
